Patent US9925153B2, “Therapeutic agents for skin diseases and conditions” (STC.UNM, priority 2013, dated 2018)
Entries after “also recorded” stand apart in the source; their conditions may differ. Read-outs that look alike come from different tables or passages of the source. Values belong to the compound of their own block, whether it stands above or below them.

Legend:
NF-κB [1] = assay: Inhibition of TNFα-induced activation of NF-κB, 293T/NF-κB-luc luciferase reporter cells; type: cell-based, human; conditions: for Activity as inhibitor of TNFα-induced activation of NF-κB in the screen, in words: screened at 15 μM, compared to resveratrol; for IC50: Homo sapiens, HEK-293T
Protocol: The cells were maintained in Dulbecco's Modified Eagle's Medium (DMEM—high glucose containing 4 mM glutamine) supplemented with 10% fetal bovine serum (FBS), 1 mM sodium pyruvate, 100 units/ml penicillin, 100 μg/ml streptomycin and 100 μg/ml hygromycin (Gibco/Invitrogen, Carlsbad, Calif.) to maintain cell selection. […] The following day cells were fed fresh media 1 hour prior to treatment. […] Plate wells were gently washed with phosphate buffered saline, pH 7.4, and lysed with 1× passive lysis buffer (Promega, Madison, Wis.). The subsequent lysates were analyzed with the Luciferase Assay System (Promega) utilizing a TD-20/20 luminometer (Turner Designs, Sunnyvale, Calif.). The firefly luciferase relative light units were normalized to protein (mg/ml) with BCA™ Protein Assay Kit (Pierce, Rockford, Ill.) and standardized to percent of control (TNFα control).

[2] = FRAP anti-oxidant assay (reduction of ferric tripyridyltriazine complex)
Excerpt: (§1) The total radical-trapping anti-oxidant parameter assay (TRAP assay) measures the ability of an analog to react with the pre-formed radical monocation of 2,2′-azinobis-(3-ethylbenzothiazoline-6-sulfonic acid) (ABTS.^+). The ferric reducing/anti-oxidant power assay (FRAP assay) measures the ability of an analog to reduce a ferric tripyridyltriazine complex.
(§2) In both colorimetric assays, the vitamin E analog Trolox was used as a control.
(§3) The anti-oxidant activities of certain stilbene analogs according to the present invention were determined using two standard assays. See, Schlesier, et al., Free Rad Res. 2002; 36:177-187. The total radical-trapping anti-oxidant parameter assay (TRAP assay) measures the ability of an analog to react with the pre-formed radical monocation of 2,2′-azinobis-(3-ethylbenzothiazoline-6-sulfonic acid) (ABTS.^+). See, Re, et al., Free Rad Biol Med, 26:1231-1237 (1999). […] The activities of curcumin and analogs were determined by their abilities to quench the color of the radical cation. […] The ferric complex of 2,4,6-tripyridyl-s-triazine was prepared at acidic pH, and the anti-oxidant activities of curcumin and analogs were determined by their abilities to reduce the ferric complex to the ferrous complex, monitored by formation of the ferrous complex at 593 nm. […]

[3] = TRAP anti-oxidant assay (quenching of ABTS radical cation)
Excerpt: as §1, §2, §3

COX-2 mRNA = assay: Inhibition of LPS-induced COX-2 mRNA expression in BV-2 microglial cells (qRT-PCR); type: cell-based, mouse; conditions: BV-2 cells, LPS 0.2 μg/ml, 24 hours; for Inhibition of LPS-induced COX-2 mRNA, in words: 0.15 μM
AP-1 = assay: Inhibition of TPA-induced activation of AP-1, 293T/AP-1-luc luciferase reporter cells; type: cell-based, human; conditions: for IC50: Homo sapiens
Protocol: An AP-1 reporter stable cell line derived from human 293T embryonic kidney cells transfected with a luciferase reporter construct containing three AP-1 binding sites in the promoter (293T/AP-1-luc, Panomics, Inc., Redwood City, Calif.) was grown in a humidified atmosphere at 37° C. in 5% CO2/95% air. The cells were maintained in Dulbecco's Modified Eagle's Medium (DMEM—high glucose containing 4 mM glutamine) supplemented with 10% fetal bovine serum (FBS), 1 mM sodium pyruvate, 100 units/ml penicillin, 100 μg/ml streptomycin and 100 μg/ml hygromycin (Gibco/Invitrogen, Carlsbad, Calif.) to maintain cell selection. One day prior to treatment, the 293T/AP-1-luc cells were plated into 24-well cell culture plates (Costar, Cambridge, Mass.) in the above media without hygromycin. The following day, the cells, which were at approximately 60% confluency, were fed fresh media with or without TPA, 10 ng/ml, (Calbiochem) and immediately treated with curcumin or analog prepared in DMSO stock solutions. The cells were placed again in a humidified atmosphere at 37° C. in 5% CO2/95% air for 24 hours. Plate wells were gently washed with phosphate buffered saline, pH 7.4, and lysed with Ix passive lysis buffer (Promega, Madison, Wis.). The subsequent lysates were analyzed with the Luciferase Assay System (Promega) utilizing a TD-20/20 luminometer (Turner Designs, Sunnyvale, Calif.). The firefly luciferase relative light units were normalized to protein (mg/ml) with BCA Protein Assay Kit (Pierce, Rockford, Ill.) and standardized to percent of control (TPA control).

[4] = Treatment of cats with inflammatory skin conditions with LD55; type: in vivo, cat; conditions: for outcome: Feline
Excerpt: (§4) Table 3 summarizes the results from consecutive treatment with LD55 of dogs and cats with inflammatory skin conditions, where LD55 was applied as a 1% lotion.

[5] = Treatment of dogs with inflammatory skin conditions with LD55; type: in vivo, dog
Excerpt: as §4

[6] = transgenic model of Alzheimer's disease (ref. 10); cited from earlier work
NF-κB [7] = conditions: literature (ref. 35); cited from earlier work
[8] = 7 h, 293T/NF-κB-luc cells, TNFα 20 ng/ml, 7 hours, triplicate, read-out: IC50 for inhibition of the TNFα-induced activation of NFκB

SMILES: COc1ccc(/C=C/c2ccccc2)cc1 [4b, (E)-4-Methoxystilbene]
Activity as inhibitor of TNFα-induced activation of NF-κB in the screen, in words (NF-κB [1]): especially active

IC50 (NF-κB [1]; [8]): 150 nM
SMILES: CN(C)c1ccc(/C=C/c2ccccc2)cc1 [4cc, (E)-4-N,N-Dimethylaminostilbene]
Anti-oxidant activity in the FRAP assay, in words [2]: retained anti-oxidant activity; also recorded: exhibits anti-oxidant activity
Anti-oxidant activity in the TRAP assay, in words [3]: retained anti-oxidant activity; also recorded: exhibits anti-oxidant activity
Inhibition of LPS-induced COX-2 mRNA, in words (COX-2 mRNA): almost as effective as 4 μM resveratrol

SMILES: COc1cccc(/C=C/c2ccccc2)c1OC [4o, (E)-2,3-Dimethoxystilbene]
Activity as inhibitor of TNFα-induced activation of NF-κB in the screen, in words (NF-κB [1]): retained very little activity

SMILES: COc1ccc(/C=C/c2ccccc2)cc1O [4s, (E)-3-Hydroxy-4-methoxystilbene]
Activity as inhibitor of TNFα-induced activation of NF-κB in the screen, in words (NF-κB [1]): considerably more active than resveratrol

SMILES: COc1ccc(/C=C/c2ccccc2)c(OC)c1 [4u, (E)-2,4-Dimethoxystilbene]
Activity as inhibitor of TNFα-induced activation of NF-κB in the screen, in words (NF-κB [1]): especially active

SMILES: COc1ccc(/C=C/c2ccc(OC)cc2)cc1 [6b, (E)-4,4′-Dimethoxystilbene]
Activity as inhibitor of TNFα-induced activation of NF-κB in the screen, in words (NF-κB [1]): retained very little activity

IC50 (NF-κB [1]; [8]): 900 ± 100 nM
SMILES: COc1ccc(/C=C/c2ccc(C)cc2)cc1 [6d, (E)-4′-Methoxy-4-methylstilbene]

SMILES: COc1ccc(/C=C/c2cc(OC)cc(OC)c2)cc1 [6f, (E)-3,4′,5-Trimethoxystilbene]
IC50 (AP-1; 24 h, read-out: IC50 for inhibition of the TPA-induced activation of AP-1): 3.8 ± 1.1 µM
Activity as inhibitor of TNFα-induced activation of NF-κB in the screen, in words (NF-κB [1]): especially active

IC50 (NF-κB [1]; [8]): 1000 ± 100 nM
SMILES: COc1ccc(/C=C/c2cccc(Cl)c2)cc1 [6h, (E)-3-Chloro-4′-methoxystilbene]

IC50 (NF-κB [1]; [8]): 800 ± 200 nM
SMILES: COc1ccc(/C=C/c2cccc(C)c2)cc1 [6i, (E)-4′-Methoxy-3-methylstilbene]

IC50 (NF-κB [1]; [8]): 1500 ± 30 nM
SMILES: COc1ccc(/C=C/c2ccccc2Cl)cc1 [6j, (E)-2-Chloro-4′-methoxystilbene]

SMILES: COc1ccc(/C=C/c2cccc(OC)c2OC)cc1 [6o, (E)-2,3,4′-Trimethoxystilbene]
Activity as inhibitor of TNFα-induced activation of NF-κB in the screen, in words (NF-κB [1]): especially active

SMILES: COc1ccc(/C=C/c2ccccc2F)cc1 [6p, (E)-2-Fluoro-4′-methoxystilbene]
outcome ([4]; atopy/ears, 1% lotion): positive
outcome ([4]; squamous cell carcinoma, 1% lotion): positive
Time for redness to disappear ([4]; animal 255, severe allergies, ears and face, applied twice a day): ≤ 24 h
Inflammatory component of pathology (redness/itching, discomfort) ([4]; cats, 1% lotion): marked improvement
Anti-oxidant activity in the FRAP assay, in words [2]: does not exhibit anti-oxidant activity
outcome ([5]; K9, Pempigus, 1% lotion): positive
outcome ([5]; K9, atopy, 1% lotion): positive
outcome ([5]; K9, hemangiosarcoma, 1% lotion): positive
outcome ([5]; K9, hot spot, 1% lotion): positive
outcome ([5]; K9, peri-analfistual, 1% lotion): positive
Nasal planum lesion after treatment ([5]; animal 1139, daily application, after 10 applications): the region was healing, the dried, flaking skin was gone and there was no bleeding
Peri-anal fistula healing ([5]; animal 3688, LD55 with combinations of standard forms of treatment, two weeks): nearly resulted in the fistula healing and closing
Inflammatory component of pathology (redness/itching, discomfort) ([5]; dogs, 1% lotion, all treated animals except two dogs with unknown outcome): marked improvement
Ability to prevent brain inflammation and plaque accumulation [6]: effective
Anti-oxidant activity in the TRAP assay, in words [3]: does not exhibit anti-oxidant activity
Inhibition of LPS-induced COX-2 mRNA, in words (COX-2 mRNA): almost as effective as 4 μM resveratrol
IC50 (NF-κB [1]; [8]): 150 nM

IC50 (NF-κB [1]; [8]): 600 ± 100 nM
SMILES: COc1ccc(/C=C/c2cccc(OC)c2)cc1 [6r, (E)-3,4′-Dimethoxystilbene]
Activity as inhibitor of TNFα-induced activation of NF-κB in the screen, in words (NF-κB [1]): especially active; also recorded: highly active

IC50 (NF-κB [1]; [8]): 600 ± 400 nM
SMILES: COc1ccc(/C=C/c2ccc(O)c(O)c2)cc1 [6x, (E)-3,4-Dihydroxy-4′-methoxystilbene]
Activity as inhibitor of TNFα-induced activation of NF-κB in the screen, in words (NF-κB [1]): considerably more active than resveratrol

IC50 (AP-1; AP1, TPA-induced activation of AP-1, Panomics reporter screening cells, read-out: AP-1 IC50 (Tables 1A and 2A)): 8.2 ± 0.3 µM
IC50 (NF-κB [1]; TNFα-induced activation of NF-κB, Panomics reporter screening cells, read-out: NFκB IC50 (Tables 1A and 2A)): 3900 ± 300 nM
SMILES: O=C(/C=C/c1ccncc1)/C=C/c1ccncc1 [reference compound]

SMILES: Oc1ccc(/C=C/c2cc(O)cc(O)c2)cc1 [resveratrol, 3,4′,5-trihydroxystilbene, reference compound]
Effect on TPA-induced AP-1 activation, in words (AP-1; 293T/AP-1-luc cells, TPA 10 ng/ml, 24 hours): activated
Inhibition of LPS-induced COX-2 mRNA (COX-2 mRNA; 4 μM): about 50%
Suppression of LPS-induced COX-2 mRNA (COX-2 mRNA; 20 μM): markedly suppressed
IC50 (NF-κB [1]; [8]): 20000 ± 3000 nM

SMILES: C(=Cc1ccccc1)c1ccccc1 [stilbene]
Inhibition of TNF-induced activation of NF-κB (NF-κB [7]): inactive
